Data from ChEMBL document CHEMBL3860060, “Discovery and Optimization of 1-Phenoxy-2-aminoindanes as Potent, Selective, and Orally Bioavailable Inhibitors of the Na+/H+ Exchanger Type 3 (NHE3)” (J Med Chem, 2016).

Experiments:
[1] = biological target: T1, Sodium/hydrogen exchanger 3 (Homo sapiens, UniProt P48764); experiment: Inhibition of human NHE3 expressed in LAP1 cell assessed as intracellular pH recovery measured for 2 mins by CECF-AM dye based FLIPR assay
T1 sequence (P48764 whole entry): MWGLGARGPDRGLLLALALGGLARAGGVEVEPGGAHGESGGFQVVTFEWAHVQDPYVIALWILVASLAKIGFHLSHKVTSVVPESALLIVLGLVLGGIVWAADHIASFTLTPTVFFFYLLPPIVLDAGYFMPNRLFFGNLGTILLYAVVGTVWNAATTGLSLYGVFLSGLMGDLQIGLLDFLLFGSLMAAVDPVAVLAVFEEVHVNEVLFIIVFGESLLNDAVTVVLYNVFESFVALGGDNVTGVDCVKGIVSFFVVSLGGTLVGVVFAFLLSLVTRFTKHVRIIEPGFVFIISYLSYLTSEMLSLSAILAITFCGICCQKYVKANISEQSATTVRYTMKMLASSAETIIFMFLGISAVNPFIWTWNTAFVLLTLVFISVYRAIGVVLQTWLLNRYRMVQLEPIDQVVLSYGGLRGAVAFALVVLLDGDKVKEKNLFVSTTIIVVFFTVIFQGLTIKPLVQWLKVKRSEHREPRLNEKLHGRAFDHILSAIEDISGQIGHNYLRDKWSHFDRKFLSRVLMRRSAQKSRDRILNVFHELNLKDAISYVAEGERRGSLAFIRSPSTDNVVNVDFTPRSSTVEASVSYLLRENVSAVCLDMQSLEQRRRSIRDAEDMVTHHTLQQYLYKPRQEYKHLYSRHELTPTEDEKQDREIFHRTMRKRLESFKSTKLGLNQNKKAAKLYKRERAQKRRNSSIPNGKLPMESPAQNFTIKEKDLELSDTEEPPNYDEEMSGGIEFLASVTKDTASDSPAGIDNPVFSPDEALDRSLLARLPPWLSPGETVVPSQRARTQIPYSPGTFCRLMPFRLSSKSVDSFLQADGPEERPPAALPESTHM

[2] = biological target: Cytochrome P450 2D6 (Homo sapiens, UniProt P10635)
Sequence of Cytochrome P450 2D6 (P10635 whole entry): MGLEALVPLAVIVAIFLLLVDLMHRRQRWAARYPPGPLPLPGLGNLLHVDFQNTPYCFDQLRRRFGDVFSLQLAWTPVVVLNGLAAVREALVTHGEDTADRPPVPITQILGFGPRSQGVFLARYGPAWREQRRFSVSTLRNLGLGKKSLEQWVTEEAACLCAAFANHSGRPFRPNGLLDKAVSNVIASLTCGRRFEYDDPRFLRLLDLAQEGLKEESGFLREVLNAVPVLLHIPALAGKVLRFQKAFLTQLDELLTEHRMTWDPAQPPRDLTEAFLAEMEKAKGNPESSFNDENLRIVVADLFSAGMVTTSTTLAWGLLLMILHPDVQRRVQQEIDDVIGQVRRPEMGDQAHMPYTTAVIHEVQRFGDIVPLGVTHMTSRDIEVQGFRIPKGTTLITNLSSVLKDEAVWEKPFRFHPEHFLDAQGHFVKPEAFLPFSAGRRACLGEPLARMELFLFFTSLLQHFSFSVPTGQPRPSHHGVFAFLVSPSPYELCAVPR
Description: Inhibition of CYP2D6 in pooled human hepatic microsomes using dextromethorphan substrate in presence of NADPH

[3] = Permeability in human Caco2/TC7 cells assessed as total flux at 20 uM incubated for 2 hrs by LC-MS/MS method; assay type: ADME, cell-based; conditions: Caco-2, read-out: permeability

Structure (SMILES) | IC50 [1] [nM] | IC50 [2] [nM] | Papp at 2 h, 20 µM [3] [×10⁻⁶ cm/s]
CS(=O)(=O)c1ccc(O[C@H]2c3cc(Cl)cc(F)c3C[C@@H]2N2CCNCC2)cc1 (racemic) | 168 | – | –
CS(=O)(=O)c1ccc(O[C@H]2c3cc(Cl)c(Cl)cc3C[C@@H]2N2CCCNCC2)cc1 (racemic) | 6060 | – | –
Cc1noc(C)c1-c1ccc(O[C@H]2c3ccccc3C[C@@H]2N2CCCC2)cc1 | 411 | – | –
CC(=O)Nc1cc(O[C@H]2c3ccccc3C[C@@H]2N2CCCC2)ccn1 | 4530 | – | –
CS(=O)(=O)c1ccc(O[C@H]2c3c(ccc(Cl)c3Cl)C[C@@H]2N2CCCNCC2)cc1 | 43 | – | –
O=c1[nH]ccn1-c1cccc(O[C@H]2c3ccccc3C[C@@H]2N2CCCC2)c1 | 281 | 3800 | 9.8
Cc1nnc(C)n1-c1ccc(O[C@H]2c3cc(Cl)ccc3C[C@@H]2N2CC[C@@H](O)C2)c(Cl)c1 | 90 | 9500 | 0.5
CN(C)CCCN(C)[C@H]1Cc2c(Cl)cc(Cl)cc2[C@@H]1Oc1ccc(S(C)(=O)=O)cc1 | 48 | – | –
CS(=O)(=O)c1ccc(O[C@H]2c3c(Cl)cc(Cl)cc3C[C@@H]2N2CCNCC2)cc1 | 135 | – | –
CS(=O)(=O)c1ccc(O[C@H]2c3ccccc3C[C@@H]2N2CCNCC2)cc1 | 6680 | – | –
CN1C[C@@H]2CN([C@H]3Cc4c(Cl)cc(Cl)cc4[C@@H]3Oc3ccc(S(C)(=O)=O)cc3)C[C@@H]2C1 | 241 | < 300 | 6
NC(=O)Nc1cccc(O[C@H]2c3ccccc3C[C@@H]2N2CCC[C@@H](N)C2)c1 | 330 | 8600 | 0.04
CS(=O)(=O)c1ccc(O[C@H]2c3cc(Cl)cc(Cl)c3C[C@@H]2N2CC[C@H](F)C2)cc1 | 883 | – | –
CS(=O)(=O)c1ccc(O[C@H]2c3cc(Cl)cc(Cl)c3C[C@@H]2N2CCCN(CCO)CC2)cc1 | 30 | – | –
CS(=O)(=O)c1ccc(O[C@H]2c3cc(Cl)cc(Cl)c3C[C@@H]2N2CCCNCC2)cc1 | 6 | < 300 | 1.6
CC(=O)Nc1ccc(O[C@H]2c3ccccc3C[C@@H]2N2CCCC2)cc1 | 2770 | – | –
N#Cc1ccc(O[C@H]2c3ccccc3C[C@@H]2N2CCCC2)cc1 | 4500 | – | –
CS(=O)(=O)c1ccc(O[C@H]2c3cc(Cl)cc(Cl)c3C[C@@H]2N2CCC3(CCNC3)C2)cc1 (some centres not stated) | 11 | – | –
Cc1nnc(C)n1-c1ccc(O[C@H]2c3ccccc3C[C@@H]2N2CCCC2)c(Cl)c1 | 78 | 730 | 6.7

Structure (SMILES) | IC50 [1] [nM] | IC50 [2] [nM] | Papp at 2 h, 20 µM [3] [×10⁻⁶ cm/s]
CS(=O)(=O)c1ccc(O[C@H]2c3ccccc3C[C@@H]2N2CCCC2)c(Cl)c1Cl | 540 | – | 19.2
CS(=O)(=O)c1ccc(O[C@H]2c3cc(Cl)cc(Cl)c3C[C@@H]2N2CCNCC2)cc1 | 22 | < 300 | 3
CS(=O)(=O)c1ccc(OC2c3cc(Cl)cc(Cl)c3CC2N2C[C@H]3CNC[C@H]3C2)cc1 (single isomer, unassigned) | 28 | 900 | 0.07
Cc1nncn1-c1ccc(O[C@H]2c3ccccc3C[C@@H]2N2CCCC2)cc1 | 640 | – | –
N[C@@H]1CCCN([C@H]2Cc3c(Cl)cc(Cl)cc3[C@@H]2Oc2ccc(S(N)(=O)=O)c(Cl)c2Cl)C1 | 0.2 | 1500 | 0.6
CC(=O)Nc1cccc(O[C@H]2c3ccccc3C[C@@H]2N2CCCC2)c1 | 438 | 640 | 9.1
CS(=O)(=O)c1ccc(O[C@H]2c3cc(Cl)cc(Cl)c3C[C@@H]2N2CCC[C@@H](NCCO)C2)cc1 | 4 | – | –
Cn1ccn(-c2cccc(O[C@H]3c4ccccc4C[C@@H]3N3CCCC3)c2)c1=O | 197 | < 300 | 9.8
O=S1(=O)CCCN1c1cccc(O[C@H]2c3ccccc3C[C@@H]2N2CCCC2)c1 | 1530 | – | –
CN1CCN([C@H]2Cc3c(Cl)cc(Cl)cc3[C@@H]2Oc2ccc(S(C)(=O)=O)cc2)CC1 | 4040 | – | –
O=C1OCCN1c1cccc(O[C@H]2c3ccccc3C[C@@H]2N2CCCC2)c1 | 955 | – | –
C[C@@H]1CN([C@H]2Cc3c(Cl)cc(Cl)cc3[C@@H]2Oc2ccc(S(C)(=O)=O)cc2)CCN1 | 20 | – | 5.1
c1ccc2c(c1)C[C@H](N1CCCC1)[C@H]2Oc1cccc2cccnc12 | 9520 | – | –
c1ccc2c(c1)C[C@H](N1CCCC1)[C@H]2Oc1ccc(-c2nccs2)cc1 | 1710 | – | –
CS(=O)(=O)c1ccc(O[C@H]2c3cc(Cl)cc(Cl)c3C[C@@H]2N2CCC[C@@H](NCCF)C2)cc1 | 56 | < 300 | 10.5
CN1CCCN([C@H]2Cc3c(Cl)cc(Cl)cc3[C@@H]2Oc2ccc(S(C)(=O)=O)cc2)CC1 | 93 | < 300 | 6.4
CS(=O)(=O)c1ccc(O[C@H]2c3cc(Cl)cc(Cl)c3C[C@@H]2N2CCCNCC2)c(Cl)c1 | 2 | – | –
COCCN1CCCN([C@H]2Cc3c(Cl)cc(Cl)cc3[C@@H]2Oc2ccc(S(C)(=O)=O)cc2)CC1 | 64 | < 300 | 11
CS(=O)(=O)c1ccc(O[C@H]2c3cc(F)cc(Cl)c3C[C@@H]2N2CCNCC2)cc1 (racemic) | 123 | – | –

Structure (SMILES) | IC50 [1] [nM] | IC50 [2] [nM] | Papp at 2 h, 20 µM [3] [×10⁻⁶ cm/s]
CS(=O)(=O)c1ccc(O[C@H]2c3cc(Cl)cc(Cl)c3C[C@@H]2N2CCC[C@@H](N)C2)cc1 | 4 | – | –
Cc1nnc(C2CC2)n1-c1ccc(O[C@H]2c3ccccc3C[C@@H]2N2CCCC2)cc1 | 272 | – | –
CS(=O)(=O)c1ccc(O[C@H]2c3cc(Cl)cc(Cl)c3C[C@@H]2N2CC[C@@H](F)C2)cc1 | 166 | – | –
N[C@@H]1CCCN([C@H]2Cc3c(Cl)cc(Cl)cc3[C@@H]2Oc2ccc(-n3ccnc3)cc2)C1 | 23 | < 300 | 1.1
CCN(CC)C(=O)c1ccc(O[C@H]2c3ccccc3C[C@@H]2N2CCCC2)cc1 | 2070 | – | –
NS(=O)(=O)c1ccc(O[C@H]2c3ccccc3C[C@@H]2N2CCCC2)c(Cl)c1Cl | 123 | 400 | 13.2
CS(=O)(=O)c1ccc(O[C@H]2c3cc(Cl)cc(Cl)c3C[C@@H]2N2CC[C@H](O)C2)cc1 | 384 | – | –
O=C1OCc2cc(O[C@H]3c4ccccc4C[C@@H]3N3CCCC3)ccc21 | 2440 | – | –
N[C@@H]1CCCN([C@H]2Cc3c(Cl)cc(Cl)cc3[C@@H]2Oc2ccc(-n3cncn3)cc2)C1 | 30 | < 300 | 2.4
O=C1CCC(=O)N1c1cccc(O[C@H]2c3ccccc3C[C@@H]2N2CCCC2)c1 | 2960 | – | –
NS(=O)(=O)c1ccc(O[C@H]2c3ccccc3C[C@@H]2N2CCCC2)cc1 | 500 | – | –
CS(=O)(=O)c1ccc(O[C@H]2c3cc(Cl)ccc3C[C@@H]2N2CCNCC2)cc1 (racemic) | 540 | – | –
Cc1c(O[C@H]2c3ccccc3C[C@@H]2N2CCCC2)ccc(-n2c(C)nnc2C)c1C | 170 | – | –
Cc1nnc(C)n1-c1ccc(O[C@H]2c3ccccc3C[C@@H]2N2CCCC2)cc1 | 345 | – | –
CS(=O)(=O)c1ccc(O[C@H]2c3cc(F)ccc3C[C@@H]2N2CCNCC2)cc1 (racemic) | 3490 | – | –
Cc1nnc(C)n1-c1ccc(O[C@H]2c3ccccc3C[C@@H]2N2CCCC2)c(C(F)(F)F)c1 | 118 | – | –
CS(=O)(=O)c1ccc(O[C@H]2c3cc(Cl)cc(Cl)c3C[C@@H]2N2CC(O)C2)cc1 | 1640 | – | –
O=C1CCCN1c1cccc(O[C@H]2c3ccccc3C[C@@H]2N2CCCC2)c1 | 3520 | – | –
